How the values were obtained:
[1] = target: Vitamin K-dependent protein C (Homo sapiens, UniProt P04070); assay: Inhibitory activity against activated protein C
Coagulation factor X = Coagulation factor X (Homo sapiens, UniProt P00742); assay: In vitro inhibitory activity against coagulation factor X.
Plasminogen = Plasminogen (Homo sapiens, UniProt P00747); assay: Inhibitory activity against plasmin.
[2] = target: Tissue-type plasminogen activator (Homo sapiens, UniProt P00750); assay: Inhibitory activity against tissue type plasminogen activator.
Tissue-type plasminogen activator, sequence (P00750 whole entry): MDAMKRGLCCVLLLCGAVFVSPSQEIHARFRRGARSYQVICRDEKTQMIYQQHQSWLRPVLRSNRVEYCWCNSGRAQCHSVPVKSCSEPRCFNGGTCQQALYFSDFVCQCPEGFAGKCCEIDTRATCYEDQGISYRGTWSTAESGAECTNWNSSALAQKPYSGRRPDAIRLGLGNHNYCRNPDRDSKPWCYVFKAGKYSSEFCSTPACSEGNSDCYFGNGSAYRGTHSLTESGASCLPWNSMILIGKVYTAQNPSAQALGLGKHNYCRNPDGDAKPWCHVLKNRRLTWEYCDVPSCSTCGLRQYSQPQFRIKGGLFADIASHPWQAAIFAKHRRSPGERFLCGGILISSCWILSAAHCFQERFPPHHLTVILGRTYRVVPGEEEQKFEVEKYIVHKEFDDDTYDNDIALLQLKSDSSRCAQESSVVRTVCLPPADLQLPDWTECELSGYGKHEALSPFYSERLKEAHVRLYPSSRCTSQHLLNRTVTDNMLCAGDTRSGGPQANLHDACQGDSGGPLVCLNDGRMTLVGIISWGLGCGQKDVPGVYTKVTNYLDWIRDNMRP

Prothrombin = Prothrombin (Homo sapiens, UniProt P00734); assay: Inhibitory activity against thrombin.
Serine protease 1 = Serine protease 1 (Homo sapiens, UniProt P07477); assay: Inhibitory activity against trypsin.
Serine protease 1, sequence (P07477 whole entry): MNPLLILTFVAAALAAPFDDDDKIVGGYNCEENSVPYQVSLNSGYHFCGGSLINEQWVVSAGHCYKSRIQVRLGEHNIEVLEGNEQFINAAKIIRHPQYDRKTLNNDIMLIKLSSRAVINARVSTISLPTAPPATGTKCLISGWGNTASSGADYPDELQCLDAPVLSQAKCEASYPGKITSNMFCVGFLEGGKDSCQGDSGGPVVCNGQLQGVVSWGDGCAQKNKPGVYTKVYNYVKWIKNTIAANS

Vitamin K-dependent protein C, sequence (P04070 43-197 limits assumed): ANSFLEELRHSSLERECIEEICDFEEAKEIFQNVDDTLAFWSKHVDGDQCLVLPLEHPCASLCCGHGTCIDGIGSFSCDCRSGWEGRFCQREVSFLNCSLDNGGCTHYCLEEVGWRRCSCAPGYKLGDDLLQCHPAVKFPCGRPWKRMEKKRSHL
Vitamin K-dependent protein C, sequence (P04070 212-461 limits assumed): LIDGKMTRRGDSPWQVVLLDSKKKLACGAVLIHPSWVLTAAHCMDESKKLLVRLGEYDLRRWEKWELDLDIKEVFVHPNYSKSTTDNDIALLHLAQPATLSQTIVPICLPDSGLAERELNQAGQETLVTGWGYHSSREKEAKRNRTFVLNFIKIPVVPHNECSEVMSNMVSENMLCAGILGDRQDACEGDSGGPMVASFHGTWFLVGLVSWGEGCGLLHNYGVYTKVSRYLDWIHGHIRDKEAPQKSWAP
Coagulation factor X, sequence (P00742 41-179 limits assumed): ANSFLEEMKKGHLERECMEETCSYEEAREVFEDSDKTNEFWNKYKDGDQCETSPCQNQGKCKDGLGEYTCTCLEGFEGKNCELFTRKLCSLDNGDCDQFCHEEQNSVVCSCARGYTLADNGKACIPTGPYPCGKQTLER
Coagulation factor X, sequence (P00742 235-488 limits assumed): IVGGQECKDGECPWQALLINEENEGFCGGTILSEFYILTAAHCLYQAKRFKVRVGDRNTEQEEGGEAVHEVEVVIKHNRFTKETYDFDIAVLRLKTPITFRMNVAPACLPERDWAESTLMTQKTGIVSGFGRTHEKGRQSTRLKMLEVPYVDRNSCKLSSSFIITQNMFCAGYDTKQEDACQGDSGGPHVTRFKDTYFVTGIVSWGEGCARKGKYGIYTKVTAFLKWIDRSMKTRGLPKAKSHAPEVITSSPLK
Plasminogen, sequence (P00747 97-580 limits assumed): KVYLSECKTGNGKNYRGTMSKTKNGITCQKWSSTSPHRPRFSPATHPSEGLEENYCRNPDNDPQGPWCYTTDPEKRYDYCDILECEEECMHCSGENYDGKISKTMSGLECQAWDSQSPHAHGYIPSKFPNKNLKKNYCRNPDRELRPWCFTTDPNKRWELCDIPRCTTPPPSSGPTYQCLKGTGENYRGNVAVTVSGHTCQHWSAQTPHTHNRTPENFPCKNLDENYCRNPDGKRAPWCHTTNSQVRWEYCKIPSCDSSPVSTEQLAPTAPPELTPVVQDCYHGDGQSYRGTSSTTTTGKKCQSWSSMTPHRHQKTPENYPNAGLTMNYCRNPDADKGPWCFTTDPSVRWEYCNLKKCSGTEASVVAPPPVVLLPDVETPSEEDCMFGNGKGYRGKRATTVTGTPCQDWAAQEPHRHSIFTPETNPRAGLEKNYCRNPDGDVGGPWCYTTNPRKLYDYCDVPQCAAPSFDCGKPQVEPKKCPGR
Plasminogen, sequence (P00747 581-810 limits assumed): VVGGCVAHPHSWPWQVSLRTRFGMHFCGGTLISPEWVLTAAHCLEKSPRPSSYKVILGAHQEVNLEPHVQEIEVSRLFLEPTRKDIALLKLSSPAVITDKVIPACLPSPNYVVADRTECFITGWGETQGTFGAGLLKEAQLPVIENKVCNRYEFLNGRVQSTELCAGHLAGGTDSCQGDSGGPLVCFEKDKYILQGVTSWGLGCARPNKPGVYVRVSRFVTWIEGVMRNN

**Q.** Which IC50 [1] does the source give for `CN(C)CCN(C)Cc1ccc(C(=O)Nc2ccc(Cl)cc2C(=O)Nc2ccc(Cl)cn2)cc1` here?
**A.** > 11 µM

**Q.** What about the IC50 (Coagulation factor X) of the same compound?
**A.** 0.0069 µM

**Q.** And the IC50 (Plasminogen)?
**A.** > 11 µM

**Q.** And the IC50 [2]?
**A.** > 11 µM

**Q.** And the IC50 (Prothrombin)?
**A.** > 11 µM

**Q.** And the IC50 (Serine protease 1)?
**A.** > 11 µM

**Q.** Which IC50 [1] does the source give for `O=C(Nc1ccc(Cl)cc1C(=O)Nc1ccc(Cl)cn1)c1ccc(C[n+]2ccccc2)cc1` here?
**A.** > 11 µM

**Q.** What about the IC50 (Coagulation factor X) of the same compound?
**A.** 0.0058 µM

**Q.** And the IC50 (Plasminogen)?
**A.** > 11 µM

**Q.** What about the IC50 [2] of the same compound?
**A.** > 11 µM

**Q.** And the IC50 (Prothrombin)?
**A.** > 11 µM

**Q.** And the IC50 (Serine protease 1)?
**A.** > 11 µM

**Q.** `O=C(Nc1ccc(Cl)cc1C(=O)Nc1ccc(Cl)cn1)c1ccc(CN2CCC(C(=O)O)CC2)cc1` was tested. Which IC50 [1] did it give?
**A.** > 11 µM

**Q.** And the IC50 (Coagulation factor X)?
**A.** 0.23 µM

**Q.** And the IC50 (Plasminogen)?
**A.** > 11 µM

**Q.** And the IC50 [2]?
**A.** > 11 µM

**Q.** And the IC50 (Prothrombin)?
**A.** > 11 µM

**Q.** And the IC50 (Serine protease 1)?
**A.** > 11 µM

**Q.** With `NC1=NCCCCN1Cc1ccc(C(=O)Nc2ccc(Cl)cc2C(=O)Nc2ccc(Cl)cn2)cc1` as the compound, how does the IC50 [1] read?
**A.** > 11 µM

**Q.** And the IC50 (Coagulation factor X)?
**A.** 0.0063 µM

**Q.** And the IC50 (Plasminogen)?
**A.** > 11 µM

**Q.** What about the IC50 [2] of the same compound?
**A.** > 11 µM

**Q.** And the IC50 (Prothrombin)?
**A.** > 11 µM

**Q.** What about the IC50 (Serine protease 1) of the same compound?
**A.** > 11 µM

**Q.** How did the IC50 [1] turn out when `O=C(Nc1ccc(Cl)cc1C(=O)Nc1ccc(Cl)cn1)c1ccc(CN2CCC(O)CC2)cc1` was run?
**A.** > 11 µM

**Q.** What about the IC50 (Coagulation factor X) of the same compound?
**A.** 0.136 µM

**Q.** What about the IC50 (Plasminogen) of the same compound?
**A.** > 11 µM

**Q.** And the IC50 [2]?
**A.** > 11 µM

**Q.** And the IC50 (Prothrombin)?
**A.** > 11 µM

**Q.** And the IC50 (Serine protease 1)?
**A.** > 11 µM

**Q.** Which IC50 [1] does the source give for `CC(=N)N(C)CCN(C)Cc1ccc(C(=O)Nc2ccc(Cl)cc2C(=O)Nc2ccc(Cl)cn2)cc1` here?
**A.** > 11 µM

**Q.** And the IC50 (Coagulation factor X)?
**A.** 0.0011 µM

**Q.** What about the IC50 (Plasminogen) of the same compound?
**A.** > 11 µM

**Q.** What about the IC50 [2] of the same compound?
**A.** > 11 µM

**Q.** And the IC50 (Prothrombin)?
**A.** > 11 µM

**Q.** And the IC50 (Serine protease 1)?
**A.** > 11 µM

**Q.** For `CCN(CC)Cc1ccc(C(=O)Nc2ccc(Cl)cc2C(=O)Nc2ccc(Cl)cn2)cc1`, which IC50 [1] is on record?
**A.** > 11 µM

**Q.** What about the IC50 (Coagulation factor X) of the same compound?
**A.** 0.035 µM

**Q.** And the IC50 (Plasminogen)?
**A.** > 11 µM

**Q.** What about the IC50 [2] of the same compound?
**A.** > 11 µM

**Q.** What about the IC50 (Prothrombin) of the same compound?
**A.** > 11 µM

**Q.** What about the IC50 (Serine protease 1) of the same compound?
**A.** > 11 µM

**Q.** Which IC50 [1] does the source give for `NCc1ccc(C(=O)Nc2ccc(Cl)cc2C(=O)Nc2ccc(Cl)cn2)cc1` here?
**A.** > 11 µM

**Q.** What about the IC50 (Coagulation factor X) of the same compound?
**A.** 0.01 µM

**Q.** And the IC50 (Plasminogen)?
**A.** > 11 µM

**Q.** And the IC50 [2]?
**A.** > 11 µM

**Q.** What about the IC50 (Prothrombin) of the same compound?
**A.** > 11 µM

**Q.** What about the IC50 (Serine protease 1) of the same compound?
**A.** > 11 µM

**Q.** `CNCCN(C)Cc1ccc(C(=O)Nc2ccc(Cl)cc2C(=O)Nc2ccc(Cl)cn2)cc1` was tested. Which IC50 [1] did it give?
**A.** > 11 µM

**Q.** What about the IC50 (Coagulation factor X) of the same compound?
**A.** 0.0068 µM

**Q.** What about the IC50 (Plasminogen) of the same compound?
**A.** > 11 µM

**Q.** What about the IC50 [2] of the same compound?
**A.** > 11 µM

**Q.** And the IC50 (Prothrombin)?
**A.** > 11 µM

**Q.** And the IC50 (Serine protease 1)?
**A.** > 11 µM

**Q.** Which IC50 [1] does the source give for `O=C(Nc1ccc(Cl)cc1C(=O)Nc1ccc(Cl)cn1)c1ccc(CN2CCNCC2)cc1` here?
**A.** > 11 µM

**Q.** What about the IC50 (Coagulation factor X) of the same compound?
**A.** 0.017 µM

**Q.** What about the IC50 (Plasminogen) of the same compound?
**A.** > 11 µM

**Q.** What about the IC50 [2] of the same compound?
**A.** > 11 µM

**Q.** What about the IC50 (Prothrombin) of the same compound?
**A.** > 11 µM

**Q.** What about the IC50 (Serine protease 1) of the same compound?
**A.** > 11 µM

**Q.** Which results are given for `NC1=NCCCN1Cc1ccc(C(=O)Nc2ccc(Cl)cc2C(=O)Nc2ccc(Cl)cn2)cc1`?
**A.** IC50 [1]: > 11 µM; IC50 (Coagulation factor X): 0.0038 µM; IC50 (Plasminogen): > 11 µM; IC50 [2]: > 11 µM; IC50 (Prothrombin): > 11 µM; IC50 (Serine protease 1): > 11 µM

**Q.** Which results are given for `O=C(Nc1ccc(Cl)cc1C(=O)Nc1ccc(Cl)cn1)c1ccc(CN2CCNC2=O)cc1`?
**A.** IC50 [1]: > 11 µM; IC50 (Coagulation factor X): 0.03 µM; IC50 (Plasminogen): > 11 µM; IC50 [2]: > 11 µM; IC50 (Prothrombin): > 11 µM; IC50 (Serine protease 1): > 11 µM

**Q.** With `CCOC(=O)CN(C)Cc1ccc(C(=O)Nc2ccc(Cl)cc2C(=O)Nc2ccc(Cl)cn2)cc1` as the compound, how does the IC50 [1] read?
**A.** > 11 µM

**Q.** What about the IC50 (Coagulation factor X) of the same compound?
**A.** 0.176 µM

**Q.** What about the IC50 (Plasminogen) of the same compound?
**A.** > 11 µM

**Q.** What about the IC50 [2] of the same compound?
**A.** > 11 µM

**Q.** And the IC50 (Prothrombin)?
**A.** > 11 µM

**Q.** What about the IC50 (Serine protease 1) of the same compound?
**A.** > 11 µM

**Q.** For `CN(CC(=O)O)Cc1ccc(C(=O)Nc2ccc(Cl)cc2C(=O)Nc2ccc(Cl)cn2)cc1`, which IC50 [1] is on record?
**A.** > 11 µM

**Q.** And the IC50 (Coagulation factor X)?
**A.** 0.156 µM

**Q.** What about the IC50 (Plasminogen) of the same compound?
**A.** > 11 µM

**Q.** What about the IC50 [2] of the same compound?
**A.** > 11 µM

**Q.** What about the IC50 (Prothrombin) of the same compound?
**A.** > 11 µM

**Q.** What about the IC50 (Serine protease 1) of the same compound?
**A.** > 11 µM

**Q.** For `O=C(Nc1ccc(Cl)cc1C(=O)Nc1ccc(Cl)cn1)c1ccc(CN2CCCC2=O)cc1`, which IC50 [1] is on record?
**A.** > 11 µM

**Q.** What about the IC50 (Coagulation factor X) of the same compound?
**A.** 0.552 µM

**Q.** And the IC50 (Plasminogen)?
**A.** > 11 µM

**Q.** And the IC50 [2]?
**A.** > 11 µM

**Q.** And the IC50 (Prothrombin)?
**A.** > 11 µM

**Q.** And the IC50 (Serine protease 1)?
**A.** > 11 µM

**Q.** What does the source list for `CC(=N)N1CCN(Cc2ccc(C(=O)Nc3ccc(Cl)cc3C(=O)Nc3ccc(Cl)cn3)cc2)CC1`?
**A.** IC50 [1]: > 11 µM; IC50 (Coagulation factor X): 0.005 µM; IC50 (Plasminogen): > 11 µM; IC50 [2]: > 11 µM; IC50 (Prothrombin): > 11 µM; IC50 (Serine protease 1): > 11 µM

**Q.** Which results are given for `CN1CCN(Cc2ccc(C(=O)Nc3ccc(Cl)cc3C(=O)Nc3ccc(Cl)cn3)cc2)CC1`?
**A.** IC50 [1]: > 11 µM; IC50 (Coagulation factor X): 0.015 µM; IC50 (Plasminogen): > 11 µM; IC50 [2]: > 11 µM; IC50 (Prothrombin): > 11 µM; IC50 (Serine protease 1): > 11 µM

**Q.** `COCCN(C)Cc1ccc(C(=O)Nc2ccc(Cl)cc2C(=O)Nc2ccc(Cl)cn2)cc1` was tested. Which IC50 [1] did it give?
**A.** > 11 µM

**Q.** And the IC50 (Coagulation factor X)?
**A.** 0.053 µM

**Q.** What about the IC50 (Plasminogen) of the same compound?
**A.** > 11 µM

**Q.** And the IC50 [2]?
**A.** > 11 µM

**Q.** What about the IC50 (Prothrombin) of the same compound?
**A.** > 11 µM

**Q.** What about the IC50 (Serine protease 1) of the same compound?
**A.** > 11 µM

**Q.** Which results are given for `NNCc1ccc(C(=O)Nc2ccc(Cl)cc2C(=O)Nc2ccc(Cl)cn2)cc1`?
**A.** IC50 [1]: > 11 µM; IC50 (Coagulation factor X): 0.04 µM; IC50 (Plasminogen): > 11 µM; IC50 [2]: > 11 µM; IC50 (Prothrombin): > 11 µM; IC50 (Serine protease 1): > 11 µM

**Q.** `CN(Cc1ccc(C(=O)Nc2ccc(Cl)cc2C(=O)Nc2ccc(Cl)cn2)cc1)C1=NCCS1` was tested. Which IC50 [1] did it give?
**A.** > 11 µM

**Q.** And the IC50 (Coagulation factor X)?
**A.** 0.01 µM

**Q.** And the IC50 (Plasminogen)?
**A.** > 11 µM

**Q.** And the IC50 [2]?
**A.** > 11 µM

**Q.** What about the IC50 (Prothrombin) of the same compound?
**A.** > 11 µM

**Q.** And the IC50 (Serine protease 1)?
**A.** > 11 µM

**Q.** With `CN(CCO)Cc1ccc(C(=O)Nc2ccc(Cl)cc2C(=O)Nc2ccc(Cl)cn2)cc1` as the compound, how does the IC50 [1] read?
**A.** > 11 µM

**Q.** What about the IC50 (Coagulation factor X) of the same compound?
**A.** 0.082 µM

**Q.** What about the IC50 (Plasminogen) of the same compound?
**A.** > 11 µM

**Q.** And the IC50 [2]?
**A.** > 11 µM

**Q.** And the IC50 (Prothrombin)?
**A.** > 11 µM

**Q.** And the IC50 (Serine protease 1)?
**A.** > 11 µM

From ChEMBL document CHEMBL1147578, “Design, synthesis, and SAR of anthranilamide-based factor Xa inhibitors with improved functional activity” (Bioorg Med Chem Lett, 2004)
